The text below walks through data of patent publication US10894807B2 (Siemens Medical Solutions USA, Inc., priority 2011, dated 2021).

For the assay, the target named is human PSMA (Homo sapiens (Human), UniProt Q04609). Kind of assay: Enzymatic assay for in vitro evaluation of PSMA inhibitors (fluorescent assay of PSMA activity, NAAG substrate, OPA detection of glutamate). Particulars: for PSMA Blkg % (10 μM): compound at 10 μM. It is filed as biochemical. The method, then:
Enzymatic Assay for In Vitro Evaluation of PSMA Inhibitors
The inhibitory activity of all compounds was determined using a fluorescent assay of human PSMA activity. The enzyme used in the assay was purchased from R&D Systems and stored at −80° C. The PSMA activity was assayed in a two-step process. In the first step, aliquots of enzyme (0.2 μg/mL) were incubated for 1 h at 37° C. in 50 mM HEPES, 0.1 M NaCl, pH 7.5, in the presence of 20 μM NAAG and the given inhibitor, in a volume of 250 μL, to allow for the accumulation of glutamate produced in the PSMA reaction. In the second step, the amount of accumulated glutamate was measured using the OPA reaction, and the fluorescence was read with a SpectraMax fluorescent plate reader using excitation at 330 nm and emission at 450 nm. The final Ki values for each inhibitor were calculated from the respective IC50 values using the Cheng and Prusoff equation.

Where a SMILES comes first, the peptide text is derived from it. [ ]: non-standard residue; d: D form. The star is where a group is joined. Boc = CC(C)(C)OC(=O)*; Nlys = NCCCCNCC(=O)O

human PSMA, sequence (Q04609 whole entry): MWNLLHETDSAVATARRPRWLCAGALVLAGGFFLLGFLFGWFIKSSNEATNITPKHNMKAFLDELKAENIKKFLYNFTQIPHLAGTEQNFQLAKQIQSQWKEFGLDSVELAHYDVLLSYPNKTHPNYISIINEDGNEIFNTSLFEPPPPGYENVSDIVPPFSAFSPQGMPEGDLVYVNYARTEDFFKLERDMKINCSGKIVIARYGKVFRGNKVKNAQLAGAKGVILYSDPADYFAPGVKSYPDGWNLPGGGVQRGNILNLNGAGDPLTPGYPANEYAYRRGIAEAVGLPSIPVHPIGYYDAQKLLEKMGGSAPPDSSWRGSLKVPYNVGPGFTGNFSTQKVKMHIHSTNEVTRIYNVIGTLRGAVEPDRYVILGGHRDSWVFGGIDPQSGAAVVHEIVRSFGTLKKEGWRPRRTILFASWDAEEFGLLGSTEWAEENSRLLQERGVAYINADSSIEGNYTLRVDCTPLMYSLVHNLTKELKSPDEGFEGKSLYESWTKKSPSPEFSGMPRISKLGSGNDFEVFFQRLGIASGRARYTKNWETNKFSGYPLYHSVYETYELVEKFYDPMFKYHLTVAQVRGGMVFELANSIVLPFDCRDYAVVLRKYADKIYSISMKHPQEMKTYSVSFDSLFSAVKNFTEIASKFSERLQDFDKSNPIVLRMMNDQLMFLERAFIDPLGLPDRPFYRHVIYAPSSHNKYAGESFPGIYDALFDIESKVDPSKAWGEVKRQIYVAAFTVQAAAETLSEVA

On to `CC(C)(C)OC(=O)NCCCCN1CC(=O)N([C@@H](CCC(=O)O)C(=O)O)C(=O)C1` [P050, (S)-2-(4-(4-(tert-Butoxycarbonylamino)butyl)-2,6-dioxopiperazin-1-yl)pentanedioic Acid], for which the “PSMA Blkg % (10 μM)” value is recorded as 0%.

With `CC(C)(C)OC(=O)NCCCCNCC(=O)N[C@@H](CCC(=O)O)C(=O)O` [P051, (S)-2-(2-(4-(tert-Butoxycarbonylamino)butylamino)acetamido)pentanedioic Acid] (H-[Nlys](Boc)-Glu-OH), the “PSMA Blkg % (10 μM)” value was 4%.

Consider `CCS(=O)(=O)N(CCc1ccccc1)CC(=O)NC(CCC(=O)O)C(=O)O` (centres unmarked) [P052, 2-(2-(N-Phenethylethylsulfonamido)acetamido)pentanedioic Acid], for which the “PSMA Blkg % (10 μM)” value worked out at 2%.

One may read the Ki as a dissociation constant, usually derived from enzyme kinetics or from competition with a known ligand. The low end stands for a stronger hold on the target, the high end for a looser hold on the target. For `CN(C(=O)N[C@@H](CCC(=O)O)C(=O)O)[C@@H](CCCCNC(=O)c1ccc(-n2cc(CCCF)nn2)cc1)C(=O)O` [P053, (S)-2-(3-((S)-1-Carboxy-5-(4-(4-(3-fluoropropyl)-1H-1,2,3-triazol-1-yl)benzamido)pentyl)-3-methylureido)pentanedioic Acid], the Ki came out at 0.0313 µM and the “PSMA Blkg % (10 μM)” value turned out to be 94%.

Regarding `O=C(O)CC[C@H](NC(=O)N[C@@H](CCCCNC(=O)c1ccc(-n2cc(CCCF)nn2)cc1)C(=O)O)C(=O)O` [P054], the Ki was 0.0016 µM and the “PSMA Blkg % (10 μM)” value was 100%.

On to `O=C(O)CC[C@@H](C(=O)O)N1C(=O)CC(=O)N([C@@H](CCCCNC(=O)OCc2ccccc2)C(=O)O)C1=O` [P055, (S)-2-(3-((S)-5-(Benzyloxycarbonylamino)-1-carboxypentyl)-2,4,6-trioxotetrahydropyrimidin-1(2H)-yl)pentanedioic Acid], for which the Ki is 0.344 µM and the “PSMA Blkg % (10 μM)” value is listed as 94%.

Take `O=C(O)CC[C@H](NC(=O)NNC(=O)OCc1ccccc1)C(=O)O` [P056, (S)-2-(2-((Benzyloxy)carbonyl)hydrazinecarboxamido)pentanedioic Acid]: the “PSMA Blkg % (10 μM)” value is given as 0%.

For the molecule `[N-]=[N+]=Nc1ccc(C(=O)NCCCC[C@@H](C(=O)O)N2C(=O)CC(=O)N([C@@H](CCC(=O)O)C(=O)O)C2=O)cc1` [P057, (S)-2-(3-((S)-5-(4-Azidobenzamido)-1-carboxypentyl)-2,4,6-trioxotetrahydropyrimidin-1(2H)-yl)pentanedioic Acid], the “PSMA Blkg % (10 μM)” value was 32%.

In the case of `[N-]=[N+]=Nc1ccc(C(=O)NCCCC[C@H](NC(=O)N[C@@H](CCC(=O)O)C(=O)O)C(=O)O)cc1` [P058, (S)-2-(3-((S)-5-(4-Azidobenzamido)-1-carboxypentyl)ureido)pentanedioic Acid], the “PSMA Blkg % (10 μM)” value stood at 100%.

Consider `CN(C(=O)N[C@@H](CCC(=O)O)C(=O)O)[C@@H](CCCCNC(=O)c1ccc(N=[N+]=[N-])cc1)C(=O)O` [P059, (S)-2-(3-((S)-5-(4-Azidobenzamido)-1-carboxypentyl)-3-methylureido)pentanedioic Acid], for which the inhibition constant Ki is 0.0125 µM and the “PSMA Blkg % (10 μM)” value is 99%.

Turning to `O=C(O)CCC(NC(=O)N[C@@H](CCC(=O)O)C(=O)O)C(=O)O` (some centres unmarked) [P060], the “PSMA Blkg % (10 μM)” value came to 96%.

Take `NNC(=O)N[C@@H](CCC(=O)O)C(=O)O` [P061, (S)-2-(Hydrazinecarboxamido)pentanedioic Acid]: the “PSMA Blkg % (10 μM)” value came out at 0%.

In the case of `[N-]=[N+]=NCCCC(=O)Nc1ccc(C[C@H](NC(=O)N[C@@H](CCC(=O)O)C(=O)O)C(=O)O)cc1` [P062, (S)-2-(3-((S)-2-(4-(4-Azidobutaneamido)phenyl)-1-carboxyethyl)-ureido)-pentanedioic Acid], the “PSMA Blkg % (10 μM)” value was found to be 97%.

For `CN(C(=O)N[C@@H](CCC(=O)O)C(=O)O)[C@@H](Cc1ccc(NC(=O)CCCN=[N+]=[N-])cc1)C(=O)O` [P063, (S)-2-(3-((S)-2-(4-(4-Azidobutaneamido)phenyl)-1-carboxyethyl)-3-methylureido)-pentanedioic Acid], the “PSMA Blkg % (10 μM)” value worked out at 30%.

In the case of `O=C(O)CC[C@@H](C(=O)O)N1C(=O)CC(=O)N([C@@H](CCCCNC(=O)c2ccc(-n3cc(CCCF)nn3)cc2)C(=O)O)C1=O` [P064, (S)-2-(3-((S)-1-Carboxy-5-(4-(4-(3-fluoropropyl)-1H-1,2,3-triazol-1-yl)benzamido)pentyl)-2,4,6-trioxotetrahydropyrimidin-1(2H)-yl)pentanedioic Acid], the “PSMA Blkg % (10 μM)” value stood at 46%.

As to `CC(=O)N(CCCCN1C(=O)c2ccccc2C1=O)NC(=O)N[C@@H](CCC(=O)O)C(=O)O` [P066, (S)-2-(2-Acetyl-2-(4-(1,3-dioxoisoindolin-2-yl)butyl)hydrazinecarboxamido)-pentanedioic Acid], the “PSMA Blkg % (10 μM)” value amounted to 12%.

In the case of `O=C(O)CC[C@H](NC(=O)N[C@@H](Cc1ccc(NC(=O)CCCCCn2cc(CCCF)nn2)cc1)C(=O)O)C(=O)O` [P067, (S)-2-(3-((S)-1-Carboxy-2-(4-(6-(4-(3-fluoropropyl)-1H-1,2,3-triazol-1-yl)hexamido)phenyl)ethyl)ureido)pentanedioic Acid], the “PSMA Blkg % (10 μM)” value amounted to 52%.

In the case of `CN(C(=O)N[C@@H](CCC(=O)O)C(=O)O)[C@@H](Cc1ccc(NC(=O)CCCCCn2cc(CCCF)nn2)cc1)C(=O)O` [P068], the “PSMA Blkg % (10 μM)” value is on record as 27%.

With `O=C(O)CC[C@H](NC(=O)N(O)C(CCCCNC(=O)OCc1ccccc1)C(=O)O)C(=O)O` (stereo partly drawn) [P069, (13S)-10-Hydroxy-3,11-dioxo-1-phenyl-2-oxa-4,10,12-triazapentadecane-9,13,15-tricarboxylic Acid], the Ki was found to be 0.25 µM and the “PSMA Blkg % (10 μM)” value was determined as 94%.

For `O=C(O)CC[C@H](NC(=S)NC(CCCCNC(=O)OCc1ccccc1)C(=O)O)C(=O)O` (stereo partly drawn) [P070, (13S)-3-Oxo-1-phenyl-11-thioxo-2-oxa-4,10,12-triazapentadecane-9,13,15-tricarboxylic Acid], the Ki amounted to 0.059 µM and the “PSMA Blkg % (10 μM)” value is 94%.

Consider `O=C(O)CC[C@H](NC(=S)N(O)C(CCCCNC(=O)OCc1ccccc1)C(=O)O)C(=O)O` (stereo partly drawn) [P071, (13S)-10-Hydroxy-3-oxo-1-phenyl-11-thioxo-2-oxa-4,10,12-triazapentadecane-9,13,15-tricarboxylic Acid], for which the inhibitory constant (Ki) was determined as 0.031 µM and the “PSMA Blkg % (10 μM)” value is 96%.

Consider `O=C(O)CC[C@@H](C(=O)O)N1C(=O)C(=O)N([C@@H](CCCCNC(=O)OCc2ccccc2)C(=O)O)C1=O` [P072, (S)-2-(3-((S)-5-(Benzyloxycarbonylamino)-1-carboxypentyl)-2,4,5-trioxoimidazolidin-1-yl)pentanedioic Acid], for which the “PSMA Blkg % (10 μM)” value came out at 39%.

In the case of `[N-]=[N+]=NCCCCC(=O)NCCCC[C@@H](C(=O)O)N1C(=O)CC(=O)N([C@@H](CCC(=O)O)C(=O)O)C1=O` [P073, (S)-2-(3-((S)-5-(5-Azidopentanamido)-1-carboxypentyl)-2,4,6-trioxotetrahydropyrimidin-1(2H)-yl)pentanedioic Acid], the “PSMA Blkg % (10 μM)” value is 2%.

`O=C(O)CC[C@@H](C(=O)O)N1C(=O)CC(=O)N([C@@H](CCCCNC(=O)Cn2cc(CCCF)nn2)C(=O)O)C1=O` [P074, (S)-2-(3-((S)-1-Carboxy-5-(2-(4-(3-fluoropropyl)-1H-1,2,3-triazol-1-yl)acetamido)pentyl)-2,4,6-trioxotetrahydropyrimidin-1(2H)-yl)pentanedioic Acid]: the “PSMA Blkg % (10 μM)” value is recorded as 10%.

`O=C(O)CC[C@H](NC(=O)N1CCC[C@H]1C(=O)O)C(=O)O` [P075, (S)-2-((S)-2-Carboxypyrrolidine-1-carboxamido)pentanedioic Acid]: the “PSMA Blkg % (10 μM)” value came to 32%.

Consider `O=C(O)CC[C@@H](C(=O)O)N1C(=O)CC(=O)N([C@@H](CCCCNC(=O)CCCCn2cc(CCCF)nn2)C(=O)O)C1=O` [P076, (S)-2-(3-((S)-1-Carboxy-5-(5-(4-(3-fluoropropyl)-1H-1,2,3-triazol-1-yl)pentanamido)pentyl)-2,4,6-trioxotetrahydropyrimidin-1(2H)-yl)pentanedioic Acid], for which the “PSMA Blkg % (10 μM)” value is 14%.

As for `CC1(C)C(=O)N([C@@H](CCCCNC(=O)OCc2ccccc2)C(=O)O)C(=O)N([C@@H](CCC(=O)O)C(=O)O)C1=O` [P077, (S)-2-(3-((S)-5-(Benzyloxycarbonylamino)-1-carboxypentyl)-5,5-dimethyl-2,4,6-trioxotetrahydropyrimidin-1(2H)-yl)pentanedioic Acid], the “PSMA Blkg % (10 μM)” value amounted to 28%.

Consider `CCC1C(=O)N([C@@H](CCCCNC(=O)OCc2ccccc2)C(=O)O)C(=O)N([C@@H](CCC(=O)O)C(=O)O)C1=O` (stereo partly drawn) [P078, (2S)-2-(3-((S)-5-(Benzyloxycarbonylamino)-1-carboxypentyl)-5-ethyl-2,4,6-trioxotetrahydropyrimidin-1(2H)-yl)pentanedioic Acid], for which the Ki is greater than 0.312 µM.

For `CCC1(CC)C(=O)N([C@@H](CCCCNC(=O)OCc2ccccc2)C(=O)O)C(=O)N([C@@H](CCC(=O)O)C(=O)O)C1=O` [P079, (S)-2-(3-((S)-5-(Benzyloxycarbonylamino)-1-carboxypentyl)-5,5-diethyl-2,4,6-trioxotetrahydropyrimidin-1(2H)-yl)pentanedioic Acid], the Ki was determined as 0.313 µM. In other words, the sub-micromolar range.

For the molecule `CN(C(=O)N[C@@H](CCC(=O)O)C(=O)O)[C@@H](CCCCNC(=O)CCCCCn1cc(CCCF)nn1)C(=O)O` [P080, (S)-2-(3-((S)-1-Carboxy-5-(6-(4-(3-fluoropropyl)-1H-1,2,3-triazol-1-yl)-hexamido)pentyl)-3-methylureido)pentanedioic Acid], the “PSMA Blkg % (10 μM)” value came to 90%.

Consider `O=C(O)CCC(NC(=O)N1CC(NC(=O)CCCCn2cc(CCCF)nn2)C[C@H]1C(=O)O)C(=O)O` (stereo partly drawn) [P081, 2-((2S)-2-Carboxy-4-(5-(4-(3-fluoropropyl)-1H-1,2,3-triazol-1-yl)pentanamido)pyrrolidine-1-carboxamido)pentanedioic Acid], for which the “PSMA Blkg % (10 μM)” value turned out to be 25%.
